Starred links: 1 amine or outer side, 2 acyl side, 3 side chain; linkers in the order of their positions; H or OH if unused. Positions of bridges follow the written chain, without caps; N, C: chain ends. Non-standard residues stand in square brackets, D forms with d. Residues, ends and D or L forms follow the SMILES beside them. ξ: configuration not given here. *: point of attachment. X38 = O=C(O)C1CCC(C(=O)Nc2ccc(-c3ccc(C[C@H](N[*:1])C(=O)[*:2])cc3)cc2)CC1; X79 = O=C(O)C1CCCC(C(=O)Nc2ccc(-c3ccc(C[C@H](N[*:1])C(=O)[*:2])cc3)cc2)C1; X37 = O=C(Nc1ccc(-c2ccc(C[C@H](N[*:1])C(=O)[*:2])cc2)cc1)c1ccc2ccccc2c1; X40 = O=C(O)C1CCCCC1C(=O)Nc1ccc(-c2ccc(C[C@H](N[*:1])C(=O)[*:2])cc2)cc1; X64 = O=C(O)CCC(=O)Nc1ccc(-c2ccc(C[C@H](N[*:1])C(=O)[*:2])cc2)cc1; Bip(4'-NH) = O=C([C@H](Cc1ccc(-c2ccc(N[*:3])cc2)cc1)N[*:1])[*:2]; Bip(4'-COOH) = N[C@@H](Cc1ccc(-c2ccc(C(=O)O)cc2)cc1)C(=O)O; Bip(4'-NHAc) = CC(=O)Nc1ccc(-c2ccc(C[C@H](N)C(=O)O)cc2)cc1; Ala(morpholin-4-yl) = N[C@@H](CN1CCOCC1)C(=O)O; Phe(3-CONH2) = NC(=O)c1cccc(C[C@H](N)C(=O)O)c1; Bip = N[C@@H](Cc1ccc(-c2ccccc2)cc1)C(=O)O; X57 = Cn1c(C(=O)*)cc2c(Cl)cccc21; Cha = N[C@@H](CC1CCCCC1)C(=O)O; Chg = N[C@H](C(=O)O)C1CCCCC1; ξE = NC(CCC(=O)O)C(=O)O; Sar = CNCC(=O)O
What follows are molecules tested against TNFα (Homo sapiens, UniProt P01375) (assay: TNF-Induced HEK-Blue Assay). Conditions: HEK-Blue-CD40L cells, NF-kB-driven secreted alkaline phosphatase reporter; TNFα 0.5 ng/ml; 18 h; read-out: TNF induced HEK-Blue assay IC50 value.
Format: cell-based

Chain of TNFα (P01375 77-233 limits assumed): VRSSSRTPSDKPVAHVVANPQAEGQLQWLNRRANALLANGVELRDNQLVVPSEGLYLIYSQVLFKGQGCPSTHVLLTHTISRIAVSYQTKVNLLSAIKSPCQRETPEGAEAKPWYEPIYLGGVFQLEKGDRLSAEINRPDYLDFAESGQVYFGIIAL

Compound	IC50
CC[C@H](C)[C@@H]1NC(=O)[C@@H](CCCNC(=N)N)NC(=O)[C@H](CC(=O)O)NC(=O)[C@H](Cc2cnc[nH]2)NC(=O)CN(C)C(=O)[C@H](Cc2ccc(-c3ccc(NC(=O)C4CCC(C(=O)O)CC4)cc3)cc2)NC(=O)[C@H](Cc2ccc(-c3ccccc3)cc2)NC(=O)[C@H](CC2CCCCC2)NC(=O)CSC[C@@H](C(=O)NCC(N)=O)NC(=O)[C@H](CC(C)C)NC(=O)[C@H](Cc2cnc[nH]2)NC(=O)[C@H](C(C)C)NC(=O)[C@@H]2CCCN2C1=O (some centres unmarked) [Example 316] ({CH2CO}-[Cha][Bip][X38][Sar]HD[dR]IPVHLCG-NH2; thioether N-13)	50 to 200 nM
CC[C@H](C)[C@@H]1NC(=O)[C@@H](CCCNC(=N)N)NC(=O)[C@H](CC(=O)O)NC(=O)[C@H](Cc2cnc[nH]2)NC(=O)CN(C)C(=O)[C@H](Cc2ccc(-c3ccc(NC(=O)C4CCCC(C(=O)O)C4)cc3)cc2)NC(=O)[C@H](Cc2ccc(-c3ccccc3)cc2)NC(=O)[C@H](CC2CCCCC2)NC(=O)CSC[C@@H](C(=O)NCC(N)=O)NC(=O)[C@H](CC(C)C)NC(=O)[C@H](Cc2cnc[nH]2)NC(=O)[C@H](C(C)C)NC(=O)[C@@H]2CCCN2C1=O (some centres unmarked) [Example 317] ({CH2CO}-[Cha][Bip][X79][Sar]HD[dR]IPVHLCG-NH2; thioether N-13)	50 to 200 nM
CC[C@H](C)[C@@H]1NC(=O)[C@@H](CCCNC(=N)N)NC(=O)[C@H](CC(=O)O)NC(=O)[C@H](Cc2cnc[nH]2)NC(=O)CN(C)C(=O)[C@H](Cc2ccc(-c3ccc(NC(=O)C4CCCCC4C(=O)O)cc3)cc2)NC(=O)[C@H](Cc2ccc(-c3ccccc3)cc2)NC(=O)[C@H](CC2CCCCC2)NC(=O)CSC[C@@H](C(=O)NCC(N)=O)NC(=O)[C@H](CC(C)C)NC(=O)[C@H](Cc2cnc[nH]2)NC(=O)[C@H](C(C)C)NC(=O)[C@@H]2CCCN2C1=O (some centres unmarked) [Example 318] ({CH2CO}-[Cha][Bip][X40][Sar]HD[dR]IPVHLCG-NH2; thioether N-13)	50 to 200 nM
CC[C@H](C)[C@@H]1NC(=O)[C@@H](CCCNC(=N)N)NC(=O)[C@H](CC(=O)O)NC(=O)[C@H](Cc2cnc[nH]2)NC(=O)CN(C)C(=O)[C@H](Cc2ccc(-c3ccc(NC(=O)c4cc5c(Cl)cccc5n4C)cc3)cc2)NC(=O)[C@H](Cc2ccc(-c3ccccc3)cc2)NC(=O)[C@H](CC2CCCCC2)NC(=O)CSC[C@@H](C(=O)NCC(N)=O)NC(=O)[C@H](CC(C)C)NC(=O)[C@H](Cc2cnc[nH]2)NC(=O)[C@H](C(C)C)NC(=O)[C@@H]2CCCN2C1=O [Example 319] ({CH2CO}-[Cha][Bip][Bip(4'-NH)](X57)[Sar]HD[dR]IPVHLCG-NH2; thioether N-13)	50 to 200 nM
CC(=O)Nc1ccc(-c2ccc(C[C@@H]3NC(=O)[C@H](Cc4ccc(-c5ccc(C(=O)O)cc5)cc4)NC(=O)[C@H](CN4CCOCC4)NC(=O)CSC[C@@H](C(=O)NCC(N)=O)NC(=O)[C@H](CC(C)C)NC(=O)[C@H](Cc4cccc(C(N)=O)c4)NC(=O)[C@H](C4CCCCC4)NC(=O)[C@@H]4CCCN4C(=O)[C@H](C(C)C)NC(=O)[C@@H](CCCNC(=N)N)NC(=O)[C@H](CC(=O)O)NC(=O)[C@@H]4CCCN4C(=O)CN(C)C3=O)cc2)cc1 [Example 320] ({CH2CO}-[Ala(morpholin-4-yl)][Bip(4'-COOH)][Bip(4'-NHAc)][Sar]PD[dR]VP[Chg][Phe(3-CONH2)]LCG-NH2; thioether N-13)	200 to 2000 nM
CC(=O)Nc1ccc(-c2ccc(C[C@@H]3NC(=O)[C@H](Cc4ccc(-c5ccccc5)cc4)NC(=O)[C@H](CC4CCCCC4)NC(=O)CSC[C@@H](C(=O)NC(CCC(=O)O)C(N)=O)NC(=O)[C@H](CC(C)C)NC(=O)[C@H](Cc4ccc(O)cc4)NC(=O)[C@H](C(C)C)NC(=O)[C@@H]4CCCN4C(=O)[C@H](C(C)C)NC(=O)[C@@H](CCCNC(=N)N)NC(=O)[C@H](CC(=O)O)NC(=O)[C@@H]4CCCN4C(=O)CN(C)C3=O)cc2)cc1 (some centres unmarked) [Example 321] ({CH2CO}-[Cha][Bip][Bip(4'-NHAc)][Sar]PD[dR]VPVYLC[ξE]-NH2; thioether N-13)	50 to 200 nM
CC[C@H](C)[C@@H]1NC(=O)[C@@H](CCCNC(=N)N)NC(=O)[C@H](CC(=O)O)NC(=O)[C@H](Cc2cnc[nH]2)NC(=O)CN(C)C(=O)[C@H](Cc2ccc(-c3ccc(NC(=O)c4ccc5ccccc5c4)cc3)cc2)NC(=O)[C@H](Cc2ccc(-c3ccccc3)cc2)NC(=O)[C@H](CC2CCCCC2)NC(=O)CSC[C@@H](C(=O)NCC(N)=O)NC(=O)[C@H](CC(C)C)NC(=O)[C@H](Cc2cnc[nH]2)NC(=O)[C@H](C(C)C)NC(=O)[C@@H]2CCCN2C1=O [Example 322] ({CH2CO}-[Cha][Bip][X37][Sar]HD[dR]IPVHLCG-NH2; thioether N-13)	50 to 200 nM
CC[C@H](C)[C@@H]1NC(=O)[C@@H](CCCNC(=N)N)NC(=O)[C@H](CC(=O)O)NC(=O)[C@H](Cc2cnc[nH]2)NC(=O)CN(C)C(=O)[C@H](Cc2ccc(-c3ccc(NC(=O)CCC(=O)O)cc3)cc2)NC(=O)[C@H](Cc2ccc(-c3ccccc3)cc2)NC(=O)[C@H](CC2CCCCC2)NC(=O)CSC[C@@H](C(=O)NCC(N)=O)NC(=O)[C@H](CC(C)C)NC(=O)[C@H](Cc2cnc[nH]2)NC(=O)[C@H](C(C)C)NC(=O)[C@@H]2CCCN2C1=O [Example 323] ({CH2CO}-[Cha][Bip][X64][Sar]HD[dR]IPVHLCG-NH2; thioether N-13)	50 to 200 nM
